Measured values: US9333222B2, “Histone deacetylase inhibitors as therapeutic agents for Niemann-Pick type C disease” (University of Notre Dame du Lac, priority 2009, dated 2016)
Like-named read-outs stand apart in the source and are kept apart here.

Legend:
[1] = system: NPC1 human fibroblast GM03123 cells; test: Filipin microscopy assay of free cholesterol in lysosomal storage organelles (LSO ratio); assay type: cell-based; details: for EC50: read-out: EC50 for correcting the NPC1 phenotype; for effect on NPC1 phenotype: after 4 hours
Method: Images were acquired with wide-field microscopy at 10× magnification. […] The effect of each HDACi on NPC1 human fibroblasts was then determined at varying concentrations and times. […] Briefly, NPC1 human fibroblast GM03123 cells were seeded in five 384-well plates in growth medium. […] HDACi were allowed to remain in the culture medium for 72, 48, 24, 4, and 0 hours of treatment. For the control, cells were treated with a corresponding concentration of dimethyl sulfoxide (DMSO). HDACi were added to five wells for each concentration. […] Images were analyzed to obtain an LSO ratio and data were normalized to corresponding DMSO-treated cells.

[2] = system: NPC1 human fibroblast GM18453 cells; test: Filipin microscopy assay of free cholesterol in LSO (LSO ratio); assay type: cell-based
Method: Next, the effect of HDACi on NPC1I1061T homozygous NPC1 human fibroblasts (GM18453) and on NPC2 human fibroblasts (GM18445) was evaluated. Briefly, NPC1 human fibroblast GM18453 cells and NPC2 human fibroblast GM18455 cells were seeded in five 384-well plates in growth medium. […] Cells were incubated at 37° C. in the presence of 5% CO2 atmosphere for 48 hours. […] Images were analyzed to obtain an LSO ratio and data were normalized to corresponding DMSO-treated cells. […] The dotted horizontal lines indicate mean values for the solvent control, and error bars represent the standard error.
Briefly, NPC1 human fibroblast GM18453 cells and NPC2 human fibroblast GM18455 cells were seeded in five 384-well plates in growth medium. […] Cells were incubated at 37° C. in the presence of 5% CO2 atmosphere for 48 hours. […] Images were analyzed to obtain an LSO ratio, and data were normalized to corresponding DMSO-treated cells. […] The dotted horizontal lines indicate mean values for the solvent control, and the error bars represent the standard error.

HDAC2 = HDAC2 (Homo sapiens, UniProt Q92769); details: read-out: Inhibition constant Ki HDAC2; cited from earlier work
[3] = Homo sapiens, Fibroblast, after 48 hours

Sequence of HDAC2 (Q92769 whole entry, species assumed): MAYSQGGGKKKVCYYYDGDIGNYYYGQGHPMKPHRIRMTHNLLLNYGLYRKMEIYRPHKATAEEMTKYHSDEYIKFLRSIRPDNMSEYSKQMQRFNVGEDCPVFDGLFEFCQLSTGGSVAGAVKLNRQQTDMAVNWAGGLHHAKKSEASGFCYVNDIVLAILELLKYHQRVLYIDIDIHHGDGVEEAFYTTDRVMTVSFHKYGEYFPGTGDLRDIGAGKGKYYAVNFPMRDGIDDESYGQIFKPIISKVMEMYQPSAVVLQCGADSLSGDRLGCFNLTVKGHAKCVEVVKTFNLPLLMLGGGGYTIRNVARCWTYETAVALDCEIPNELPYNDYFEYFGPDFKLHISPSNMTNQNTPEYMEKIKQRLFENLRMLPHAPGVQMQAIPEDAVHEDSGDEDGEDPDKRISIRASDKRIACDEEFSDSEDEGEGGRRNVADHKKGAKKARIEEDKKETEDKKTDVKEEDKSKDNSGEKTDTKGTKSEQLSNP

For `CCCCOc1ccc(CC(=O)NO)cc1` [Bufexamac], the “correction of the NPC1 phenotype” value ([1]; various concentrations (0.04-10 μM) and times (4-72 hours), GM03123) was “no correction of the NPC1 phenotype”.

In the case of `CC(=O)Nc1ccc(C(=O)Nc2ccccc2N)cc1` [CL-994], the EC50 [1, 3] is reported as roughly 1000 nM and the “effect on NPC1 phenotype” value ([1]; GM03123) is reported as “no effect”.

With `Cc1[nH]c2ccccc2c1CCNCc1ccc(/C=C/C(=O)NO)cc1` [LBH-589, panobinostat] the “concentration of highest efficacy in correcting the NPC1 phenotype” value ([2]; 48-hour treatment, GM18453) was 37 nM and the EC50 ([1]; Homo sapiens, Fibroblast, 48 h) was less than 4 nM.

With `COc1ccc(Cn2ccc3ccc(C(=O)NO)cc32)cc1` [PCI-34051] the “correction of the NPC1 phenotype” value ([2]; 40 nM to 10 μM, 48 hours, NPC1 human fibroblasts (FIG. 6)) was “no correction of the NPC1 phenotype”.

In the case of `O=C(CCCCCCC(=O)Nc1cccnc1)NO` [Pyroxamide], the Ki (HDAC2) is listed as 3.6 nM and the EC50 [1, 3] is listed as roughly 1000 nM.

With `O=C(CCCCCCC(=O)Nc1ccccc1)NO` [SAHA, vorinostat] the “effect on NPC1 phenotype” value ([1]; GM03123) was “no effect”.

`CC(/C=C/C(=O)NO)=C\[C@@H](C)C(=O)c1ccc(N(C)C)cc1` [TSA, trichostatin A] showed an EC50 ([1]; after 48 hours) of roughly 20 nM.
